Laboratory results: ChEMBL document CHEMBL1201862, “PubChem BioAssay data set” (2004)
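Each compound was tested at five concentrations against cells in 96-well plates for 48 hours. Abbreviation: GI50, concentration required for 50% inhibition of growth.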 The source made the active and inactive calls. No stated cut-off is given here; in the data, active = GI50 up to about 1.1 µM and inactive = higher.

How the values were obtained:
Test in all cases: NCI-60 cell line screen, 48 h
A549 = tested on: A549
BT-549 = tested on: BT-549
CAKI-1 = tested on: CAKI-1
DU-145 = tested on: DU-145
HCT-15 = tested on: HCT-15
HL-60 = tested on: HL-60
LOX IMVI = tested on: LOX IMVI
MDA-MB-435 = tested on: MDA-MB-435
NCI-H522 = tested on: NCI-H522
PC-3 = tested on: PC-3
RPMI-8226 = tested on: RPMI-8226
SK-MEL-2 = tested on: SK-MEL-2
SK-MEL-5 = tested on: SK-MEL-5
SK-OV-3 = tested on: SK-OV-3
SNB-19 = tested on: SNB-19
SR = tested on: SR
T47D = tested on: T47D
TK-10 = tested on: TK-10
NCI-H460 = tested on: NCI-H460
A498 = tested on: A498

Compound | GI50 (A549) | GI50 (BT-549) | GI50 (CAKI-1) | GI50 (DU-145) | GI50 (HCT-15) | GI50 (HL-60) | GI50 (LOX IMVI) | GI50 (MDA-MB-435) | GI50 (NCI-H522) | GI50 (PC-3) | GI50 (RPMI-8226) | GI50 (SK-MEL-2) | GI50 (SK-MEL-5) | GI50 (SK-OV-3) | GI50 (SNB-19) | GI50 (SR) | GI50 (T47D) | GI50 (TK-10) | GI50 (NCI-H460) | GI50 (A498)
CCOC(=O)C(NCc1cccc(C(F)(F)F)c1)(NC(=O)CC)C(F)(F)F (stereo unspecified) | 44.2 µM (inactive) | > 100 µM (inactive) | > 100 µM (inactive) | > 100 µM (inactive) | > 100 µM | 58.5 µM (inactive) | > 100 µM (inactive) | > 100 µM (inactive) | > 100 µM (inactive) | 95.5 µM (inactive) | 26 µM (inactive) | > 100 µM (inactive) | > 100 µM (inactive) | > 100 µM (inactive) | > 100 µM (inactive) | > 100 µM (inactive) | 62.4 µM (inactive) | > 100 µM (inactive) |  | 
Cc1ccc(S(=O)(=O)N(CCN2C(=O)c3ccccc3C2=O)c2cc3c4c(c2)Oc2cc(N(CCN5C(=O)c6ccccc6C5=O)S(=O)(=O)c5ccc(C)cc5)cc5c2C4(C)c2c(cc(N(CCN4C(=O)c6ccccc6C4=O)S(=O)(=O)c4ccc(C)cc4)cc2O5)O3)cc1 | > 100 µM (inactive) | > 100 µM (inactive) | > 100 µM (inactive) | > 100 µM (inactive) | > 100 µM | > 100 µM (inactive) | > 100 µM (inactive) | > 100 µM (inactive) | > 100 µM (inactive) | > 100 µM (inactive) | > 100 µM (inactive) | > 100 µM (inactive) | > 100 µM (inactive) | > 100 µM (inactive) | > 100 µM (inactive) | > 100 µM (inactive) | > 100 µM (inactive) | > 100 µM (inactive) | > 100 µM (inactive) | 
OC1CSCCCSCCSCCCSC1 | > 100 µM (inactive) | > 100 µM (inactive) | > 100 µM (inactive) | > 100 µM (inactive) | > 100 µM |  | > 100 µM (inactive) | > 100 µM (inactive) | > 100 µM (inactive) | > 100 µM (inactive) | 37.6 µM (inactive) | > 100 µM (inactive) | > 100 µM (inactive) | > 100 µM (inactive) | > 100 µM (inactive) |  | > 100 µM (inactive) | > 100 µM (inactive) | > 100 µM (inactive) | > 100 µM (inactive)
O=C(CC(=O)n1nc(-c2ccccc2)c(/N=N/c2ccc(Cl)cc2)c1-c1ccccc1)Nc1cccc(Cl)c1 | > 100 µM (inactive) | > 100 µM (inactive) |  |  | 54.6 µM | 28.5 µM (inactive) |  |  |  | 75 µM (inactive) | 65.6 µM (inactive) | > 100 µM (inactive) | > 100 µM (inactive) |  | 41.1 µM (inactive) | 37.8 µM (inactive) | > 100 µM (inactive) | > 100 µM (inactive) | 34.1 µM (inactive) | 34.3 µM (inactive)
C[C@]12CC[C@@H]3c4cc(Br)c(O)c(Br)c4CC[C@H]3[C@@H]1CCC2=O | 17.3 µM (inactive) | 23.8 µM (inactive) | 18.9 µM (inactive) | 39.6 µM (inactive) | 12.4 µM | 26.2 µM (inactive) | 20.4 µM (inactive) | 26.2 µM (inactive) |  | 30.8 µM (inactive) |  | 15 µM (inactive) |  | 31.4 µM (inactive) |  |  | 33.9 µM (inactive) | 17.6 µM (inactive) | 21.4 µM (inactive) | 40.9 µM (inactive)
C=C[C@@]1(C)CC(=O)[C@]2(O)[C@@]3(C)[C@@H](OC(C)=O)CCC(C)(C)[C@@H]3[C@H](O)[C@H](OC(C)=O)[C@@]2(C)O1 | > 100 µM (inactive) | > 100 µM (inactive) | > 100 µM (inactive) | > 100 µM (inactive) | > 100 µM |  | > 100 µM (inactive) | > 100 µM (inactive) |  | > 100 µM (inactive) |  | > 100 µM (inactive) |  | > 100 µM (inactive) | > 100 µM (inactive) | > 100 µM (inactive) | > 100 µM (inactive) |  | > 100 µM (inactive) | > 100 µM (inactive)
COc1ccc(C)c2c1N[C@](C)([C@]1(C)Nc3c(OC)ccc(C)c3C1=O)C2=O | > 100 µM (inactive) | > 100 µM (inactive) | > 100 µM (inactive) | > 100 µM (inactive) | > 100 µM |  | > 100 µM (inactive) | 44.7 µM (inactive) | > 100 µM (inactive) | > 100 µM (inactive) | > 100 µM (inactive) | > 100 µM (inactive) | > 100 µM (inactive) | > 100 µM (inactive) | 68.9 µM (inactive) | > 100 µM (inactive) | > 100 µM (inactive) |  | > 100 µM (inactive) | > 100 µM (inactive)
N=C1/C(=C/c2ccccc2)C(=O)N=C2SC=NN12 | > 100 µM (inactive) | > 100 µM (inactive) | > 100 µM (inactive) | > 100 µM (inactive) | > 100 µM | > 100 µM (inactive) | > 100 µM (inactive) | > 100 µM (inactive) | > 100 µM (inactive) | > 100 µM (inactive) | > 100 µM (inactive) | > 100 µM (inactive) | > 100 µM (inactive) | > 100 µM (inactive) | > 100 µM (inactive) | > 100 µM (inactive) | > 100 µM (inactive) | > 100 µM (inactive) | > 100 µM (inactive) | 
